Source: EP2307018B1, “OXYMATRINE COMPOSITIONS AND USE THEREOF FOR TREATING AND PREVENTING CHRONIC INFECTIOUS DISEASES” (Chia, John K.S., priority 2008, dated 2010)

Tests used:
enterovirus = test: case report Example 5, treatment of chronic fatigue; type: in vivo, human; settings: before oxymatrine
Description: A person developed debilitating fatigue, sore throat, oral ulcers, vertigo, headaches and cognitive dysfunction two months after having a flu-like illness. […] Approximately four years later, the patient started taking oxymatrine. After an initial increase of gastrointestinal symptoms for the first two weeks, the patient tolerated 500 mg per day of oxymatrine.
The symptoms continued for two weeks and resolved after stopping oxymatrine. […] They continued to improve for 12 months after taking the medication.

coxsackievirus B [1] = settings: in vitro; mechanism not defined; cited from earlier work
echoviruses = settings: in vitro; mechanism not defined; cited from earlier work
Coxsackievirus B [2] = settings: intravenous matrine; 0% in the placebo-treated group; cited from earlier work

For `CC(C)[C@H](N)C(=O)OCCOCn1cnc2c(=O)[nH]c(N)nc21` [valacyclovir, reference compound], the clinical response (enterovirus) was “did not respond”.
In the case of `O=C1CCC[C@@H]2[C@H]3CCCN4CCC[C@@H](CN12)[C@@H]34` [matrine], the “growth inhibition of coxsackievirus B in cell cultures” value (coxsackievirus B [1]) is given as “growth inhibition”, the “growth inhibition of echoviruses in cell cultures” value (echoviruses) is given as “growth inhibition” and the “patients with improvement of cardiac function, increase in lymphocyte number and function, and loss of viral markers” value (Coxsackievirus B [2]) is given as “more than 90%”.
